Test results: patent US5801182A, “Amine substituted compounds” (Cell Therapeutics, Inc., priority 1995, dated 1998)

What was measured:
[1] = system: Mouse bone marrow cells (CFU-GM); assay: CFU-GM colony assay, effect on normal bone marrow cells; format: cell-based; settings: for effect on normal cells compared to known chemotherapeutic compounds in vitro: vs vinblastine, 5-fluorouracil, doxorubicin or cisplatinum; for toxicity for normal mouse marrow cells: 8 hours incubation, CFU-GM after 7 days, FIGS. 12-16
Source text: This example illustrates a method for examining an effect of the inventive compounds, showing potential as cancer therapies on normal cells. This assay has been used clinically to evaluate recovery of patients' marrow following chemotherapy or radiation. In this specific example, inventive compounds nos.
Mouse bone marrow cells are useful in this assay because they produce colonies, which can later be counted, in culture. The colonies are called colony forming unit-granulocyte macrophage (CFU-GM) and depend on a source of colony stimulating factor for growth.
Cells were cultured with inventive compounds nos. 3563, 3576, 3581, 3584 and 4500, to comparatively evaluate an effect on normal cells of inventive compounds identified as potential cancer therapies. Procedurally, cells were incubated for 8 hours with various concentrations of these compounds. A negative control without any compound was simultaneously prepared. After 8 hours, the incubated cells were washed thoroughly and a consistent number were subsequently plated to obtain CFU-GM. Colonies were permitted to grow for 7 days at 37° C., in 5% CO2. After 7 days of growth, colony growths were counted microscopically. Data obtained in this assay for inventive compounds nos. 3563, 3576, 3581, 3584 and 4500 are plotted in FIGS. 12, 13, 14, 15 and 16, respectively. The data in the figures are shown to compare the colonies counted for cells incubated with varying concentrations of the compounds tested against the negative control, without compound. At concentrations ranging from 5 to 30 μM, more colonies existed for cells incubated with the inventive potential cancer compound than with known, chemotherapeutic agents. Compound no.

[2] = system: thymocytes; assay: Thymocyte proliferation and activation, co-stimulated with Con A and IL-2; format: cell-based, Balb/C mice; settings: Mus musculus, 2 h, compound added two hours prior, FIGS. 6-11
Protocol: 3506, 3556, 3563, 3576, 3581, 3582 and 3584 on thymocyte proliferation and activation, co-stimulated with Concanavalin A (Con A) and interleukin-2 (IL-2), at various concentrations of the compounds (IC50). Con A and IL-2 together stimulate T cell proliferation and differentiation.
Thymuses, obtained from normal, female Balb/C mice, were dissociated and plated into 96-well plates at a density of 2×10^5 cells/well. Con A ([…]) and IL-2 (15 U/ml) were added to the wells. The cells were incubated for 4 days at 37° C. On day 4, the cells were pulsed with tritiated thymidine and incubated for an additional 4 hours. Incorporated tritiated thymidine of harvested cells was determined in a liquid scintillation counter. Results plotted as dose concentration versus proliferation for inventive compounds nos. 3506, 3556, 3563, 3576, 3581, 3582 and 3584 are shown in FIGS. 6 (3506), 7 (3556), 8 (3563), 9 (3576), 10 (3581 and 3582) and 11 (3584). Respective concentrations of inventive compound (shown in the figures) were added two hours prior to Con A and IL-2 activation. Background counts were less than 200 cpm.

[3] = system: HIV long terminal repeat (LTR) promotor; assay: Inhibition of reporter gene (alkaline phosphatase) expression directed by HIV-LTR promotor in 293-EBNA cells; format: cell-based; settings: Human immunodeficiency virus 1; reporter gene directed by HIV-LTR promotor in 293-EBNA cells; FIGS. 17, 19, 21
Source text: This example is an assay used to measure anti-viral activity of inventive compounds nos. […] This assay is predictive of anti-viral activity for retroviruses. Specifically,a plasmid construct, pHIV.AP, using the human immunodeficiency virus (HIV) long terminal repeat (LTR) promotor [derived from pU3R-III CAT (Sodroski et al. Science, Vol. 227, page 171, 1985) to direct the expression of secreted human placental alkaline phosphatase reporter gene and an expression vector for a 72 amino acids tat protein from HIV (Frankel et al., Cell, Vol. 55, pages 1189-1193, 1988) were transfected into a tumor cell line (e.g., 293-EBNA cells). The stably transfected cells were treated with various concentrations of the inventive compounds. The expression of the alkaline phosphatase (AP) reporter gene in the individual cultures was then measured by following the change in absorbance at A405 of cell conditioned media in the presence of a suitable substrate (e.g., ortho-nitrophenol phosphate). Berger et al., Gene, Vol. 66, pages 1-10, 1988.

[4] = Viability of 293-EBNA cells (alamarBlue colorimetric assay); format: cell-based; settings: human, 293-ebna cells; alamarBlue; FIGS. 18, 20, 21; read-out: LD50, 293-EBNA cells
Protocol: (§1) The effect of respective inventive compounds on the viability of 293-EBNA cells was measured by a colorimetric assay that uses the alamarBlue® dye (purchased from Alamar Biosciences, Inc.) to report cell proliferation, viability and cytotoxicity. This dye is an oxidation-reduction (Redox) indicator that changes color in response to chemical reduction of growth medium resulting from cell growth. The general procedure involves adding alamarBlue® in an amount equal to 10% of the culture volume, returning the culture to incubator for four hours, and measuring the absorbance at 570 nm after subtraction of background absorbance at 600 nm.

[5] = system: Balb/3T3 cells; assay: Viability (cytotoxicity) assay of Balb/3T3 cells with BCECF; format: cell-based; settings: at the concentrations at which the compounds inhibit proliferation; vs control value of 100%; FIGS. 3 and 5
Protocol: In conjunction with the Balb/3T3 proliferation assay, a related viability assay was conducted to assess the cytotoxicity of compounds which inhibit proliferation in this system. The assay protocol was identical to that performed above except that tritiated thymidine was not added after the 24 hour incubation with PDGF. In this cytotoxicity assay, after incubating the cells, a 10 μM solution of BCECF was added and the cells were incubated for 30 minutes at 37° C. Following this incubation, BCECF was replaced with PBS and the plate read for fluorescence in a Millipore cytofluorometer. Data obtained was plotted as a percent of control versus concentration of inventive compound tested. FIGS. 3 and 5 represent the results of this viability assay, for compounds nos. 3556 and 4500, respectively.

[6] = system: Balb/3T3 cells; assay: PDGF-induced proliferation of Balb/3T3 cells (tritiated thymidine); format: cell-based; settings: Mus musculus, BALB/3T3, 24 h; PDGF-stimulated; FIGS. 2 and 4; read-out: concentrations inhibiting proliferation of Balb/3T3 cells stimulated by PDGF
Protocol: Disregulated PDGF-proliferative response has been linked to a variety of diseases, including, e.g., restenosis, atherosclerosis, fibrosis, and tumor cell angiogenesis. Balb/3T3 cells respond vigorously to PDGF stimulation, and are useful in vitro models for further study of PDGF-induced proliferation.
Balb/3T3 cells were plated in low serum-containing medium for 24 hours prior to stimulation with various concentrations of inventive compounds nos. 3556 and 4500. PDGF was added at varying concentrations along with tritiated thymidine. The cells were allowed to incubate for one day, following addition of PDGF and thymidine. Twenty-four hours later, the cells were harvested and counted by liquid scintillation counting. FIGS. 2 and 4 report data for inventive compounds nos. 3556 and 4500, respectively, obtained in this proliferation assay. The results shown in each respective figure illustrate that inventive compounds nos.

[7] = system: 293-EBNA cells; assay: Viability of 293-EBNA cells (alamarBlue colorimetric assay); format: cell-based
Protocol: as §1

[8] = system: JR-CSF strain of HIV-1; assay: HIV-1 JR-CSF infection of human peripheral blood lymphocytes (p24 antigen ELISA); format: cell-based; settings: JR-CSF HIV-1, FIG. 22
Protocol: 3556, to prevent promotion of fresh isolates of JR-CSF strain of HIV-1 infection of human peripheral blood lymphocytes (PBL).
In a protocol for infecting a PBL cell suspension, JR-CSF HIV-1 was clarified at low-speed centrifugation (2,000-3,000 rpm) or filtration and stored in aliquots at -70° C. To maintain consistent titers, HIV-1 aliquots were not subjected to repeated freezing and thawing and any remainder was discarded. Virus aliquots were thawed at room temperature or under cold running water for more rapid thawing and maintained in ice after thawing. Just prior to infection of PBL cells, the supernatant or dilution were warmed to room temperature.
Human PBL cells taken from a suitable donor were centrifuged down at 1000 rpm for 5-10 minutes at room temperature. While cells were spinning, the virus inoculum was prepared in medium by adding 10 μg/ml Polybrene®. The centrifuged cells were resuspended in virus inoculum, using 1 ml of virus inoculum per 10^7 cells. A more efficient HIV-1 infection is obtained with smaller amounts of inoculum. The cells were incubated at 37° C. in the presence of virus inoculum for 2 hours, shaking the suspension every half hour. After 2 hours, the suspension was spun down, the virus inoculum removed and the cells were washed with 10 ml of fresh media. […]

[9] = system: human stromal cells; assay: PDGF-induced proliferation in human stromal cells; format: cell-based; settings: for concentration at which comparative compounds' activity is apparent: 50 ng/ml PDGF-BB, human stromal cells, FIG. 23
Protocol: 3506 on PDGF-induced proliferation in human stromal cells. Procedurally, human stromal cells were starved in serum-free media for 24 hours and then stimulated with 50 ng/ml PDGF. Compound no. 3506 was added at various concentrations one hour prior to PDGF stimulation and pulsed for 24 hours. Cells were harvested and cell proliferation measured having background counts (i.e., starved cells) at about 10% of control levels.
Human stromal cells were starved in serum-free media for 24 hours and then stimulated with 50 ng/ml PDGF-BB. The drugs were added at various concentrations one hour prior to PDGF stimulation. Tritiated thymidine was added at the time of PDGF stimulation and pulsed for 24 hours. Cells were harvested and cell proliferation measured (FIG. 23). Background counts (i.e., starved cells) were about 10% of control levels.

Structure (SMILES)	IC50 [3] [µM]	CC50 [4] [µM]	further results
CCCCCCCCCCCCN(C)CCCCCCCCCCCn1c(=O)c2c(ncn2C)n(C)c1=O [compound 3576]	< 10	< 15	effect on normal cells compared to known chemotherapeutic compounds in vitro [1]: less deleterious to normal cells; IC50 [2]: 0.26 µM
CCCCCCCCNCCCCCCCCCCCn1c(=O)c2c(ncn2C)n(C)c1=O [compound no. 3556, 1-(11-octylaminoundecyl)-3,7-dimethylxanthine]	~2.5	~12.5	cytotoxicity to Balb/3T3 cells [5]: not cytotoxic to any cells; minimal effective concentration [6]: < 30 µM; concentration at which cytotoxicity becomes significant [7]: > 10 µM; decrease of HIV-1 infection of PBL ([8]; 1 μM): decreased infection by about two to three fold; HIV-1 infection of PBL ([8]; 10 and 20 μM): virtually eliminated viral infection
CCCCCCCCCCCCNCCCCCCCCCCCn1c(=O)c2c(ncn2C)n(C)c1=O [compound no. 3563]	< 4	< 7	toxicity for normal mouse marrow cells [1]: most cytotoxic to proliferative potential of the mouse marrow cells; effect on normal cells compared to known chemotherapeutic compounds in vitro [1]: less deleterious to normal cells
CCCCCCN(C)CCCCCCCCCCCn1c(=O)c2c(ncn2C)n(C)c1=O [compound no. 4500]	< 10		toxicity for normal mouse marrow cells [1]: virtually no toxicity at elevated concentrations; cytotoxicity to Balb/3T3 cells [5]: not cytotoxic to any cells; minimal effective concentration [6]: < 30 µM
COc1cc(CNCCCCCCCCCCCn2c(=O)c3c(ncn3C)n(C)c2=O)cc(OC)c1OC [compound no. 3593]	< 25		cytotoxicity to 293-EBNA cells (in words) [7]: little cytotoxicity, even at >32 μM
CCCCCCCCCCCCCCCCNCCCCCCCCCCCn1c(=O)c2c(ncn2C)n(C)c1=O [compound 3584]	< 10	< 15	effect on normal cells compared to known chemotherapeutic compounds in vitro [1]: less deleterious to normal cells
CCCCCCN(CCCCCC)CCCCCCCCCCCn1c(=O)c2c(ncn2C)n(C)c1=O [compound no. 3590]	< 20		cytotoxicity to 293-EBNA cells (in words) [7]: little cytotoxicity even at >32 μM
CCCCCCNCCCCCCCCCCCn1c(=O)c2c(ncn2C)n(C)c1=O [compound no. 3580]	< 10	< 30	cytotoxicity to 293-EBNA cells (in words) [7]: minimal cytotoxicity
CC(=O)CCCCCCn1c(=O)c2c(ncn2C)n(C)c1=O [A, 1-(7-oxooctyl)-3,7-dimethylxanthine]			concentration at which comparative compounds' activity is apparent [9]: millimolar concentrations
CCCCCCCCCCCCCNCCCCCCCCCCCn1c(=O)c2c(ncn2C)n(C)c1=O [compound 4507]	< 4	< 7	
CCCCCCCCCCCCCCNCCCCCCCCCCCn1c(=O)c2c(ncn2C)n(C)c1=O [compound 3582]	< 5	< 5	
CCCCCCCCCCNCCCCCCCCCCCn1c(=O)c2c(ncn2C)n(C)c1=O [compound 3581]	< 5	< 10	effect on normal cells compared to known chemotherapeutic compounds in vitro [1]: less deleterious to normal cells
CC(CCCCn1c(=O)c2c(ncn2C)n(C)c1=O)N(C)C (stereo not drawn) [B, 1-(5-dimethylaminohexyl)-3,7-dimethylxanthine]			concentration at which comparative compounds' activity is apparent [9]: millimolar concentrations
CCCCCCCCCCCCCCCNCCCCCCCCCCCn1c(=O)c2c(ncn2C)n(C)c1=O [compound no. 4508]	< 10	< 10	
CCCCCCCCCCCNCCCCCCn1c(=O)c2c(ncn2C)n(C)c1=O [compound no. 3506]			IC50 [2]: 2.3 µM; PDGF-induced proliferation in human stromal cells ([9]; 50 ng/ml PDGF, compound added one hour prior, FIG. 1): inhibition of PDGF-induced proliferation
